Experimental data reported in US20190091187A1 (Orbus Therapeutics, Inc., priority 2016, published 2019).
Read-outs that look alike come from different tables or passages of the source.

What was measured:
[1] = test system: newly diagnosed AG and GBM patients; test: Phase 3 study of eflornithine with PCV versus PCV, adverse events; type: in vivo, human; conditions: Eflornithine-PCV minus PCV, N = 500
From the text: As used herein, the term “toxicity” refers to any one of the side effects referred to above in Table 2, regardless of the severity of the side effect or its possible effect on the course of treatment.

neuroblastoma cells = conditions: arrest of cell division between G1 and mitosis; cited from earlier work
[2] = test system: AG and GBM patients treated at recurrence; conditions: 3.6 g/m^2 every 8 hours, N = 89, cited from earlier work
[3] = test system: biopsied skin actinic keratosis; conditions: topical, compared to placebo-treated skin, cited from earlier work
Big Blue Rat-2 cells = conditions: 9.1 at 0 mM, cited from earlier work
low-grade gliomas = conditions: adjuvant chemotherapy; recurrent tumors; driver mutations in RB and AKT-mTOR pathways; cited from earlier work

eflornithine
Anemia, Excess AEs due to Eflornithine ([1]; Toxicity Grade 1): 12.5% | Anorexia, Excess AEs due to Eflornithine ([1]; Toxicity Grade 1): −1.5% | Constipation, Excess AEs due to Eflornithine ([1]; Toxicity Grade 1): −1.9% | Diarrhea, Excess AEs due to Eflornithine ([1]; Toxicity Grade 1): 25.4% | Fatigue, Excess AEs due to Eflornithine ([1]; Toxicity Grade 1): 4.7% | Granulocytopenia, Excess AEs due to Eflornithine ([1]; Toxicity Grade 1): 2.4% | Headache, Excess AEs due to Eflornithine ([1]; Toxicity Grade 1): −1.9% | Hearing loss, Excess AEs due to Eflornithine ([1]; Toxicity Grade 1): 0.0% | Leukopenia, Excess AEs due to Eflornithine ([1]; Toxicity Grade 1): −3.4% | Nausea only, Excess AEs due to Eflornithine ([1]; Toxicity Grade 1): 1.0% | Pruritis and itching, Excess AEs due to Eflornithine ([1]; Toxicity Grade 1): −0.7% | Thrombocytopenia, Excess AEs due to Eflornithine ([1]; Toxicity Grade 1): 4.6% | Vomiting, Excess AEs due to Eflornithine ([1]; Toxicity Grade 1): 5.2% | Anemia, Excess AEs due to Eflornithine ([1]; Toxicity Grade 2): 15.6% | Anorexia, Excess AEs due to Eflornithine ([1]; Toxicity Grade 2): 2.5% | Constipation, Excess AEs due to Eflornithine ([1]; Toxicity Grade 2): −0.7% | Diarrhea, Excess AEs due to Eflornithine ([1]; Toxicity Grade 2): 17.4% | Fatigue, Excess AEs due to Eflornithine ([1]; Toxicity Grade 2): 6.9% | Granulocytopenia, Excess AEs due to Eflornithine ([1]; Toxicity Grade 2): 1.1% | Headache, Excess AEs due to Eflornithine ([1]; Toxicity Grade 2): 1.3% | Hearing loss, Excess AEs due to Eflornithine ([1]; Toxicity Grade 2): 1.2% | Leukopenia, Excess AEs due to Eflornithine ([1]; Toxicity Grade 2): 1.2% | Nausea only, Excess AEs due to Eflornithine ([1]; Toxicity Grade 2): 0.0% | Pruritis and itching, Excess AEs due to Eflornithine ([1]; Toxicity Grade 2): 0.9% | Thrombocytopenia, Excess AEs due to Eflornithine ([1]; Toxicity Grade 2): 10.5% | Vomiting, Excess AEs due to Eflornithine ([1]; Toxicity Grade 2): 1.1% | Anemia, Excess AEs due to Eflornithine ([1]; Toxicity Grade 3): 4.5% | Anorexia, Excess AEs due to Eflornithine ([1]; Toxicity Grade 3): 1.2% | Constipation, Excess AEs due to Eflornithine ([1]; Toxicity Grade 3): 0.4% | Diarrhea, Excess AEs due to Eflornithine ([1]; Toxicity Grade 3): 6.0% | Fatigue, Excess AEs due to Eflornithine ([1]; Toxicity Grade 3): 0.8% | Granulocytopenia, Excess AEs due to Eflornithine ([1]; Toxicity Grade 3): −3.9% | Headache, Excess AEs due to Eflornithine ([1]; Toxicity Grade 3): 0.4% | Hearing loss, Excess AEs due to Eflornithine ([1]; Toxicity Grade 3): 0.8% | Leukopenia, Excess AEs due to Eflornithine ([1]; Toxicity Grade 3): 0.0% | Nausea only, Excess AEs due to Eflornithine ([1]; Toxicity Grade 3): 0.9% | Pruritis and itching, Excess AEs due to Eflornithine ([1]; Toxicity Grade 3): −0.3% | Thrombocytopenia, Excess AEs due to Eflornithine ([1]; Toxicity Grade 3): 3.5% | Vomiting, Excess AEs due to Eflornithine ([1]; Toxicity Grade 3): 4.5% | Anemia, Excess AEs due to Eflornithine ([1]; Toxicity Grade 4): 2.0% | Anorexia, Excess AEs due to Eflornithine ([1]; Toxicity Grade 4): 0.0% | Constipation, Excess AEs due to Eflornithine ([1]; Toxicity Grade 4): 0.4% | Diarrhea, Excess AEs due to Eflornithine ([1]; Toxicity Grade 4): 0.8% | Fatigue, Excess AEs due to Eflornithine ([1]; Toxicity Grade 4): 0.0% | Granulocytopenia, Excess AEs due to Eflornithine ([1]; Toxicity Grade 4): 1.8% | Headache, Excess AEs due to Eflornithine ([1]; Toxicity Grade 4): 0.0% | Hearing loss, Excess AEs due to Eflornithine ([1]; Toxicity Grade 4): 0.0% | Leukopenia, Excess AEs due to Eflornithine ([1]; Toxicity Grade 4): 0.9% | Nausea only, Excess AEs due to Eflornithine ([1]; Toxicity Grade 4): 0.0% | Pruritis and itching, Excess AEs due to Eflornithine ([1]; Toxicity Grade 4): 0.0% | Thrombocytopenia, Excess AEs due to Eflornithine ([1]; Toxicity Grade 4): 2.1% | Vomiting, Excess AEs due to Eflornithine ([1]; Toxicity Grade 4): −1.2% | effect on intracellular proteins p21 and p27kip-1 (neuroblastoma cells): increase | Ototoxicity, patients (%) ([2]; Toxicity Grade 1): (7.9) % | Ototoxicity, patients n ([2]; Toxicity Grade 1): 7 | Ototoxicity, patients (%) ([2]; Toxicity Grade 2): (5.6) % | Ototoxicity, patients n ([2]; Toxicity Grade 2): 5 | Ototoxicity, patients (%) ([2]; Toxicity Grade 3): (6.7) % | Ototoxicity, patients n ([2]; Toxicity Grade 3): 6 | reduced the percentage of p53-positive cells ([3]; P=0.04): 22% | reduction of the frequency of p53 mutations [3]: not the frequency of p53 mutations

Cn1nnc2c(C(N)=O)ncn2c1=O [TMZ, temozolomide]
lacI mutation frequency (Big Blue Rat-2 cells; 0.5 mM TMZ): 48.9 | lacI mutation frequency (Big Blue Rat-2 cells; 1 mM TMZ): 89.7 | patients whose tumors followed an alternative evolutionary path to high-grade glioma with hypermutation (low-grade gliomas): 6 of 10
